Values after ≈ are worked out from the molar mass of the structure shown.
How the values were obtained:
Assay in all cases: Antibacterial effectiveness in agar
Format in all cases: cell-based
[1] = test system: Staphylococcus aureus T67+; conditions: in agar; Staphylococcus aureus T67+; read-out: M.I.C.
From the text: (§1) b. Antibacterial effectiveness of the compound of […]

[2] = test system: Escherichia coli E8; conditions: in agar; Escherichia coli E8; read-out: M.I.C.
From the text: as §1

[3] = test system: Serratia marcescens SM27; conditions: in agar; Serratia marcescens SM27; read-out: M.I.C.
From the text: as §1

[4] = test system: Enterbacter aerogenes NCTC 10006; conditions: in agar; Enterbacter aerogenes NCTC 10006; read-out: M.I.C.
From the text: as §1

[5] = test system: Proteus morganii I; conditions: Morganella morganii; in agar; Proteus morganii I; read-out: M.I.C.
From the text: as §1

[6] = test system: Proteus vulgaris NCTC 4395; conditions: NCTC4395; in agar; Proteus vulgaris NCTC 4395; read-out: M.I.C.
From the text: as §1

[7] = test system: Escherichia coli 5; conditions: in agar; Escherichia coli 5; read-out: M.I.C.
From the text: as §1

[8] = test system: Pseudomonas aeruginosa NCTC 10662; conditions: NCTC10662; in agar; Pseudomonas aeruginosa NCTC 10662; read-out: M.I.C.
From the text: as §1

[9] = test system: Bacteroides fragilis B3; conditions: in agar; Bacteroides fragilis B3; read-out: M.I.C.
From the text: as §1

[10] = test system: Streptococcus faecalis C90; conditions: Enterococcus faecalis; in agar; Streptococcus faecalis C90; read-out: M.I.C.
From the text: as §1

[11] = test system: Staphylococcus aureus Smith; conditions: in agar; Staphylococcus aureus Smith; read-out: M.I.C.
From the text: as §1

[12] = test system: Proteus morganii T361; conditions: Morganella morganii; in agar; Proteus morganii T361; read-out: M.I.C.
From the text: as §1

[13] = test system: Klebsiella aerogenes T219; conditions: in agar; Klebsiella aerogenes T219; read-out: M.I.C.
From the text: as §1

[14] = test system: Streptococcus faecalis T1101; conditions: Enterococcus faecalis; in agar; Streptococcus faecalis T1101; read-out: M.I.C.
From the text: as §1

[15] = test system: Bacteroides fragilis WS41; conditions: in agar; Bacteroides fragilis WS41; read-out: M.I.C.
From the text: as §1

[16] = test system: Escherichia coli JT1; conditions: in agar; Escherichia coli JT1; read-out: M.I.C.
From the text: as §1

[17] = test system: Bacteroides fragilis WS1; conditions: in agar; Bacteroides fragilis WS1; read-out: M.I.C.
From the text: as §1

[18] = test system: Bacteroides fragilis WS12; conditions: in agar; Bacteroides fragilis WS12; read-out: M.I.C.
From the text: as §1

[19] = test system: Bacteroides fragilis BC4; conditions: in agar; Bacteroides fragilis BC4; read-out: M.I.C.
From the text: as §1

[20] = test system: Enterobacter cloacea NCTC 10005; conditions: NCTC10005; in agar; Enterobacter cloacea NCTC 10005; read-out: M.I.C.
From the text: as §1

[21] = test system: Proteus rettgeri R110; conditions: Providencia rettgeri; in agar; Proteus rettgeri R110; read-out: M.I.C.
From the text: as §1

[22] = test system: Enterbacter aerogenes T660; conditions: in agar; Enterbacter aerogenes T660; read-out: M.I.C.
From the text: as §1

[23] = test system: Proteus rettgeri I; conditions: Providencia rettgeri; in agar; Proteus rettgeri I; read-out: M.I.C.
From the text: as §1

[24] = test system: Klebsiella aerogenes I281; conditions: in agar; Klebsiella aerogenes I281; read-out: M.I.C.
From the text: as §1

[25] = test system: Proteus vulgaris X; conditions: in agar; Proteus vulgaris X; read-out: M.I.C.
From the text: as §1

[26] = test system: Escherichia coli JT425C+; conditions: in agar; Escherichia coli JT425C+; read-out: M.I.C.
From the text: as §1

[27] = test system: Bacteroides fragilis BC16; conditions: in agar; Bacteroides fragilis BC16; read-out: M.I.C.
From the text: as §1

[28] = test system: Escherichia coli JT4R+
From the text: as §1

[29] = test system: Staphylococcus aureus ME9+; conditions: in agar; Staphylococcus aureus ME9+; read-out: M.I.C.
From the text: as §1

[30] = test system: Pseudomonas aeruginosa W975; conditions: in agar; Pseudomonas aeruginosa W975; read-out: M.I.C.
From the text: as §1

[31] = test system: Enterobacter cloacea T749; conditions: in agar; Enterobacter cloacea T749; read-out: M.I.C.
From the text: as §1

[32] = test system: Klebsiella aerogenes Va2R+; conditions: in agar; Klebsiella aerogenes Va2R+; read-out: M.I.C.
From the text: as §1

[33] = test system: Pseudomonas aeruginosa Dalgleish; conditions: in agar; Pseudomonas aeruginosa Dalgleish; read-out: M.I.C.
From the text: as §1

[34] = test system: Escherichia coli JT20R+
From the text: as §1

[35] = test system: Escherichia coli E96R+
From the text: as §1

[36] = test system: Staphylococcus aureus ATCC 25923; conditions: ATCC25923; in agar; Staphylococcus aureus ATCC 25923; read-out: M.I.C.
From the text: as §1

[37] = test system: Staphylococcus aureus T150+; conditions: in agar; Staphylococcus aureus T150+; read-out: M.I.C.
From the text: as §1

Compound CC(=O)N/C=C/SC1=C(C(=O)O)N2C(=O)[C@@H]([C@H](C)OS(=O)(=O)O)[C@H]2C1 [MM 13902, reference compound] has an MIC [1] of 0.8 mg/L (≈ 2.04 µM), an MIC [2] of at most 0.1 mg/L and an MIC [3] of 1.6 mg/L (≈ 4.08 µM). The MIC [4] was 0.4 mg/L (≈ 1.02 µM), the MIC [5] was 0.2 mg/L (≈ 0.51 µM) and the MIC [6] was 0.1 mg/L (≈ 0.255 µM). The MIC [7] was at most 0.1 mg/L, the MIC [8] was 25 mg/L (≈ 63.7 µM) and the MIC [9] was 0.4 mg/L (≈ 1.02 µM). It also gave an MIC [10] of 6.2 mg/L (≈ 15.8 µM), an MIC [11] of 1.6 mg/L (≈ 4.08 µM) and an MIC [12] of 0.2 mg/L (≈ 0.51 µM). It also gave an MIC [13] of at most 0.1 mg/L, an MIC [14] of 6.2 mg/L (≈ 15.8 µM) and an MIC [15] of 0.4 mg/L (≈ 1.02 µM). For the same compound, the MIC [16] was at most 0.1 mg/L, the MIC [17] was 6.2 mg/L (≈ 15.8 µM) and the MIC [18] was 0.2 mg/L (≈ 0.51 µM). It also gave an MIC [19] of 1.6 mg/L (≈ 4.08 µM), an MIC [20] of 12.5 mg/L (≈ 31.9 µM) and an MIC [21] of 0.2 mg/L (≈ 0.51 µM). The MIC [22] was 0.4 mg/L (≈ 1.02 µM), the MIC [23] was 0.2 mg/L (≈ 0.51 µM) and the MIC [24] was 0.2 mg/L (≈ 0.51 µM). The MIC [25] was 0.4 mg/L (≈ 1.02 µM), the MIC [26] was 0.8 mg/L (≈ 2.04 µM) and the MIC [27] was 1.6 mg/L (≈ 4.08 µM). For the same compound, the MIC [28] was 1.6 mg/L (≈ 4.08 µM), the MIC [29] was 3.1 mg/L (≈ 7.9 µM) and the MIC [30] was 50 mg/L (≈ 127 µM). The MIC [31] was 12.5 mg/L (≈ 31.9 µM), the MIC [32] was 6.2 mg/L (≈ 15.8 µM) and the MIC [33] was 50 mg/L (≈ 127 µM). It also gave an MIC [34] of 1.6 mg/L (≈ 4.08 µM), an MIC [35] of 0.2 mg/L (≈ 0.51 µM) and an MIC [36] of 1.6 mg/L (≈ 4.08 µM). The MIC [37] was 1.6 mg/L (≈ 4.08 µM).

From US4473578A, “β-Lactam antibiotics and their use” (Beecham Group Limited, priority 1979, dated 1984)
